Measurements as given in patent publication US11220522B2, “Cytotoxic platinum complex, its preparation and therapeutic use” (City University of Hong Kong, priority 2016, dated 2022).

Key:
[1] = test system: cisplatin-resistant A549cisR cells; assay: MTT cytotoxicity assay, A549cisR cells
Method: (§1) Human ovarian carcinoma A2780 and cisplatin-resistant A2780cisR cells were cultured in RPMI 1640 with 10% FBS and 100 units penicillin/streptomycin. Human breast adenocarcinoma MCF-7, human colorectal carcinoma HCT116, human lung carcinoma A549, and cisplatin-resistant A549cisR cells were cultured in DMEM containing 10% FBS and 100 units penicillin/streptomycin. Human fetal lung fibroblast MRC-5 cells were cultured in MEM with 10% FBS, 1% L-glutamine, 1% non-essential amino acids, and 1% sodium pyruvate. […] All cells were incubated at 37° C. in 5% CO2.
(§2) For each of these assays, cells were seeded in 96-well plates at a certain density. For instance, A2780 cells were seeded in a 96-well plate at the density of 1,500 cells per well and incubated till the confluence reached about 30%. Cells were then treated with medium containing varying concentrations of compounds for 72 h at 37° C. in 5% CO2. […] For MTT assay, after incubation for 72 h, the medium containing compounds was replaced by FBS-free medium with 1 mg/mL MTT for 4 h incubation. DMSO was added to each well when the medium containing MTT was removed after incubation. The absorbance was measured at 570 and 630 nm. Cells incubated with medium containing 1% DMF only were used as controls. The seeded cell density for A549, MCF-7 and HCT116 was 1,500 cells/well, and for A2780cisR, A549cisR, and MRC-5 was 2,500 cells were seeded to each well. The absorbance was tested at 570 and 630 nm.
(§3) Values are the average of the 96-wells for each tested compound, and the reported errors are the corresponding standard deviations.

[2] = test system: cisplatin-resistant A2780cisR cells; assay: MTT cytotoxicity assay, A2780cisR cells
Method: as §1, §2, §3

[3] = MTT cytotoxicity assay, MRC-5 normal cells; conditions: human, MRC-5 fetal lung fibroblast cells (normal cells)
Method: as §1, §2, §3

[4] = test system: human colorectal carcinoma HCT116 cells; assay: MTT cytotoxicity assay, HCT116 cells; type: cell-based; conditions: maximum over the cells tested (HCT116)
Method: The absorbance was measured at 570 and 630 nm. […].

[5] = test system: cisplatin-resistant A2780cisR cells
Method: as §1, §2, §3

[6] = test system: Human fetal lung fibroblast MRC-5 cells
Method: as §1, §2, §3

[7] = test system: Human ovarian carcinoma A2780 cells
Method: as §1
(§4) For each of these assays, cells were seeded in 96-well plates at a certain density. For instance, A2780 cells were seeded in a 96-well plate at the density of 1,500 cells per well and incubated till the confluence reached about 30%. Cells were then treated with medium containing varying concentrations of compounds for 72 h at 37° C. in 5% CO2. […] For MTT assay, after incubation for 72 h, the medium containing compounds was replaced by FBS-free medium with 1 mg/mL MTT for 4 h incubation. DMSO was added to each well when the medium containing MTT was removed after incubation. The absorbance was measured at 570 and 630 nm. Cells incubated with medium containing 1% DMF only were used as controls. […] The absorbance was tested at 570 and 630 nm. […]

[8] = test system: cisplatin-resistant A549cisR cells
Method: as §1, §2, §3

[9] = test system: Human breast adenocarcinoma MCF-7 cells
Method: Human breast adenocarcinoma MCF-7, human colorectal carcinoma HCT116, human lung carcinoma A549, and cisplatin-resistant A549cisR cells were cultured in DMEM containing 10% FBS and 100 units penicillin/streptomycin. […] All cells were incubated at 37° C. in 5% CO2.
as §2, §3

[10] = test system: human lung carcinoma A549 cells
Method: as §1, §4

N.N.[Cl][Pt][Cl] [cDDP, cis-diamminedichloroplatinum]
RF (Resistant Factor) ([1]; IC50 in A549cisR/IC50 in A549 cells): 4.3 | RF (Resistant Factor) ([2]; IC50 in A2780CisR/IC50 in A2780 cells): 16

[NH2][Pt]([NH2])([Cl])([Cl])([O]C(=O)COc1ccc(/C=C/C(=O)c2ccc(Cl)c(Cl)c2)cc1)[O]C(=O)COc1ccc(/C=C/C(=O)c2ccc(Cl)c(Cl)c2)cc1 [chalcoplatin]
IC50 at 72 h [3]: 9 ± 0.4 µM

[NH2][Pt]([NH2])([OH])([Cl])([Cl])[O]C(=O)COc1ccc(/C=C/C(=O)c2ccc(Cl)c(Cl)c2)cc1 [monochalcoPt(IV)]
IC50 (cytotoxicity, MTT assay) ([1]; A549cisR cells, 72 h drug treatment): nanomolar | IC50 (cytotoxicity, MTT assay) ([2]; A2780cisR cells, 72 h drug treatment): nanomolar | IC50 at 72 h [3]: 0.11 ± 0.03 µM | fold increase in cytotoxicity compared with cisplatin [4]: ≤ 422 fold

Chalcone
IC50 [5]: > 35 µM | IC50 [6]: 65.1 ± 9 µM | IC50 [7]: > 35 µM | IC50 [8]: > 40 µM | IC50 [9]: > 50 µM | IC50 [10]: > 40 µM
